From US8702939B2, “Electrotaxis methods and devices” (McMaster University, priority 2010, dated 2014)

Experiments:
Format in all cases: in vivo, Caenorhabditis elegans
DA neurons = experiment: toxin-induced degeneration of DA neurons in dat-1p::yfp transgenic animals
From the text: In some cases, the entire dendritic processes were missing.

C. elegans [1] = experiment: microfluidic electrotaxis assay of toxin/drug-exposed worms (U-turn, head movement, speed); settings: for movement speed response of toxin-treated animals: abnormal = slower than 215 μm/sec, 3V/cm
Experimental: The toxins 6-OHDA (catalog no. 162957), Rotenone (catalog no. R8875) and Acetaminophen (catalog no. A7085) were obtained from Sigma Aldrich. MPTP (M325913) was from Toronto Research Chemicals. […] 6-OHDA solution is sensitive to light and therefore it was kept in the dark. A stock solution of Acetaminophen (10 mM) was prepared and stored at −20° C. At the time of toxin assay, the stock solution was diluted to 100 μM final concentration.
(§1) All assays with toxins were done using L1 stage worms. Synchronized L1 worms were exposed to toxin solutions for different time periods with mild shaking on a rotating platform. At the end of the time period, tubes were briefly centrifuged to remove drug solution and worm pellets were diluted with […] and were plated on normal NG agar plates.
(§2) Experimental design was as described Rezai et al., ibid. Electric field was fixed at 3V/cm. Then, the direction of the electric field was changed and the worm was allowed to move the same distance in the opposite direction. The movement of each worm was recorded using a Nikon Coolpix P5100, NY, USA. The captured videos were analyzed using the ImageJ NIH image module. Three parameters—U-turn, head movement and speed—were used to characterize the behaviour of animals. For U-turn, the time (in seconds) that was taken by a moving worm to come to a stop and turn to the opposite direction after the electric field direction was reversed was recorded. Most wild type worms (˜90%, see results) were able to change direction in less than 10 seconds. Worms taking 10 sec or longer were considered to have an abnormal response. For the head movement analysis, the number of full sine waves (i.e., spanning up to three-fourth of the channel width) that a worm makes within a 30 sec. duration were determined. Wild-type worms make full sine waves in majority of cases with failures typically being less than 25%. Therefore, a threshold of 25% to place a worm in normal or abnormal category was used. […] To analyze speed, the time taken by a worm to move a distance of 5000 μm in a given direction was used. Speed was measured in both directions of movement and the average value was used as a true response. Wild type animals typically moved with a speed of 215 μm/sec and above. Therefore, animals moving slower than 215 μm/sec were considered to have an abnormal response.

C. elegans [2] = settings: for movement defects on plate: lowered concentration and exposure time, slow reaction when touched on head or tail
Experimental: as §1
These phenotypes are in agreement with published studies.

C. elegans [3] = experiment: channel-based drug-screening assay: acetaminophen pre-treatment against neurotoxins (electrotaxis)
Experimental: The toxins 6-OHDA (catalog no. 162957), Rotenone (catalog no. R8875) and Acetaminophen (catalog no. A7085) were obtained from Sigma Aldrich. MPTP (M325913) was from Toronto Research Chemicals. Desired concentrations of 6-OHDA (100 μM), MPTP (700 μM) and Rotenone (25 μM) were prepared in M9 one day before the assay and stored at −20° C. 6-OHDA solution is sensitive to light and therefore it was kept in the dark. A stock solution of Acetaminophen (10 mM) was prepared and stored at −20° C. At the time of toxin assay, the stock solution was diluted to 100 μM final concentration.
as §2
In order to establish a baseline to screen for neuroprotective compounds in a channel-based assay, the neuroprotective effect of acetaminophen (a known analgesic) against neurodegeneration caused by toxinsas tested.
Pre-treatment of worms with acetaminophen (100 uM, 24 hrs exposure during L1 stage) prior to treatment with 6-0H DA as above, conferred a significant protection on the worms as evidenced by the electrotactic response of worms using all 3 movement parameters described above. The protection ranged from 30% to 50% (FIG. 34). […] The defect in head movement was decreased by 40% and U-turn by 30%. The impact of Acetaminophen on Rotenone-induced neuronal toxicity and provide first evidence that Acetaminophen protects DA neurons from the toxic effects of Rotenone. While the head movement defect was decreased by 20%, abnormalities in U-turn response and speed were lower by 50% and 38%, respectively.

Which results are given for `NCCc1cc(O)c(O)cc1O` [6-OHDA, 6-hydroxydopamine]?
degeneration of DA neurons (DA neurons; 6-OHDA 100 μM for 4 hours): did not cause an obvious degeneration of DA neurons; animals with DA neuron (CEP dendritic process) defects (DA neurons; 6-OHDA 100 μM, longer exposure ~71 hrs): 15%; electrotactic response in channel (C. elegans [1]; 100 μM 6-OHDA for as little as 30 min): abnormal electrotactic response; electrotactic response in channel (C. elegans [1]; 5 mM 6-OHDA treated L1 animals): practically immobile and unresponsive to the electric field stimulus; U-turn defect, proportion of worms (C. elegans [1]; 6-OHDA 100 μM, within 4 hour exposure of L1 worms, electric field 3V/cm, abnormal = 10 sec or longer): 30-80%; defective head movement response, proportion of worms (C. elegans [1]; 6-OHDA, 30 minutes toxin exposure): about one-third; defective head movement response, proportion of animals (C. elegans [1]; 6-OHDA, 1 hr exposure): 50%; defective head movement response, proportion of worms (C. elegans [1]; 6-OHDA, 4 hour exposure): 61%; movement speed response of toxin-treated animals (C. elegans [1]): most defective response compared to the other 2 toxins; phenotype of treated L1 animals (C. elegans [2]; 5 mM 6-OHDA): extreme sluggishness, uncoordinated movement, protruding vulva, growth arrest and early larval lethality; weak uncoordinated phenotype, proportion of worms (plate) (C. elegans [2]; 6-OHDA, 30 min exposure): one-quarter; morphological defects on plate (C. elegans [2]; 6-OHDA, 4 hr exposure): morphological defects such as protruding vulva (Pvl); uncoordinated phenotype, proportion of animals (plate) (C. elegans [2]; 6-OHDA, 4 hr exposure): 86%

What does the source list for `CN1CC=C(c2ccccc2)CC1` [MPTP, 1-methyl 4-phenyl 1,2,3,6-tetrahydropyridine]?
electrotactic response in channel (C. elegans [1]; 700 μM MPTP for up to 8 hrs): obvious defects in the channel assay; head movement defects, proportion of worms (C. elegans [1]; MPTP, 4 hr exposure): 80%; movement speed response of toxin-treated animals (C. elegans [1]): wild type response in all 3 conditions tested; appearance on NG agar plates (C. elegans [2]; 700 μM MPTP for up to 8 hrs): fairly active and healthy; phenotype of treated L1 worms (C. elegans [2]; 1.4 mM MPTP for 3 days): almost completely uncoordinated and paralyzed; movement defects on plate (C. elegans [2]): only subtle and low penetrant movement defects

Which “electrotactic movement” value (C. elegans [1]; 25 μM Rotenone for 1-8 hr) does the source give for `C=C(C)[C@H]1Cc2c(ccc3c2O[C@@H]2COc4cc(OC)c(OC)cc4[C@@H]2C3=O)O1` [Rotenone] here?
Its value is “abnormal electrotactic movement”.

What about the “defect in the speed of animals” value (C. elegans [1]; Rotenone exposure) of the same compound?
The value was 48%.

And the “abnormal head movement response, proportion of worms” value (C. elegans [1]; Rotenone, after 8 hrs of toxin exposure)?
Its value is “up to 30%”.

And the “appearance on the plate” value (C. elegans [2]; 25 μM Rotenone for 1-8 hr)?
Its value is “largely healthy”.

What about the “morphology of exposed worms” value (C. elegans [2]; 25 μM rotenone for less than 12 hrs) of the same compound?
Its value is “morphological defects similar to MPTP”.

What about the “movement defects on plate” value (C. elegans [2]) of the same compound?
Its value is “only subtle and low penetrant movement defects”.

What does the source list for `CC(=O)Nc1ccc(O)cc1` [acetaminophen]?
decrease of U-turn defect (C. elegans [3]; MPTP): 30%; decrease of head movement defect (C. elegans [3]; MPTP): 40%; decrease of abnormalities in U-turn response (C. elegans [3]; Rotenone): 50%; decrease of abnormalities in speed (C. elegans [3]; Rotenone): 38%; decrease of head movement defect (C. elegans [3]; Rotenone): 20%

For `c1ccc([C@H]2CN3CCSC3=N2)cc1` [levamisole], which “movement response in microfluidic channel” value (C. elegans [1]; 10 μM levamisole, only 5 worms tested) is on record?
The value was “reduced movement”.
